# From ChEMBL document CHEMBL1201862, “PubChem BioAssay data set” (2004)
# Activity calls are given as the source filed them.
# Key:
# [1] = growth suppression of PTEN-null colon cells, dose response, cell-based, HCT116 PTEN knockout (AID 1047); assay type: functional;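 also: HCT116 colon tumor cells with PTEN knocked out; cells exposed to compound for 60 hours before readout; potency for loss of cell viability measured by luminescence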
# [2] = growth suppression of beta-catenin-knockout colon cells, dose response, cell-based, HCT116, human colon tumor (AID 1045); assay type: functional;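 also: HCT116 colon tumor cells with beta catenin knocked out; cells exposed to compound for 60 hours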
# [3] = molecular target: Voltage-dependent T-type calcium channel subunit alpha-1H (Homo sapiens, UniProt O95180); assay type: functional;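 also: channel activity triggered by adding a high calcium stimulation buffer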
# [4] = molecular target: T1, Short transient receptor potential channel 4 (Mus musculus, UniProt Q9QUQ5); test: mouse TRPC4 channel activators, dose response, cell-based, HEK293 TRPC4/mu-opioid, Fluo-4 calcium (AID 434937); assay type: functional
# T1 sequence (Q9QUQ5 whole entry): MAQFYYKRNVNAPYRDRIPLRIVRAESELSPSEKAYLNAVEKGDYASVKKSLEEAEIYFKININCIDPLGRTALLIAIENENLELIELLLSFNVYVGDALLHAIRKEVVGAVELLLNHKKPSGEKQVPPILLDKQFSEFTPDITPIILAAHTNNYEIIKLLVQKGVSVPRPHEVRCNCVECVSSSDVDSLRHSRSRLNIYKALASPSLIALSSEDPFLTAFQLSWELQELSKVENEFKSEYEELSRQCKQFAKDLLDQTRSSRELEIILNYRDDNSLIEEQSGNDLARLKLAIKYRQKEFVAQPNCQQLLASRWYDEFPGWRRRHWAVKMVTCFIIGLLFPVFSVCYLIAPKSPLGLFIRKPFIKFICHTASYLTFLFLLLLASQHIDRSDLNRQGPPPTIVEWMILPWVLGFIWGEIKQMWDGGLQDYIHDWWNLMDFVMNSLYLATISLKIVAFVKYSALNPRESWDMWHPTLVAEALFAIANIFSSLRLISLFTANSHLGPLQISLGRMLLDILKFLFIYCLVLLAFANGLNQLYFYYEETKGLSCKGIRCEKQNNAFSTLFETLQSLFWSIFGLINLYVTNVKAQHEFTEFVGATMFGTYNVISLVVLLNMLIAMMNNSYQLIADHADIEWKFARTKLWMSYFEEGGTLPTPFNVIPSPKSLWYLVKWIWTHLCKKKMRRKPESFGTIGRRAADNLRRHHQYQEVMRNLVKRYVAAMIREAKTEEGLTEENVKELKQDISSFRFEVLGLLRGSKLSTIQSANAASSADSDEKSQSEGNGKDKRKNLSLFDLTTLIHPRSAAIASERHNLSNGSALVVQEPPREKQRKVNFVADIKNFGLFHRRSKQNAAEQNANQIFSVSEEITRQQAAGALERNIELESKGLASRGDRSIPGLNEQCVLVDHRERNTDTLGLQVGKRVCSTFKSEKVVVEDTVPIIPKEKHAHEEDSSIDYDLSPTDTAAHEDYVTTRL
# Hexokinase HKDC1 = molecular target: T2, Hexokinase HKDC1 (Homo sapiens, UniProt Q2TB90); test: HKDC1 hexokinase activators, dose response, biochemical, W721R variant (AID 504730); assay type: functional
# T2 sequence (Q2TB90 whole entry): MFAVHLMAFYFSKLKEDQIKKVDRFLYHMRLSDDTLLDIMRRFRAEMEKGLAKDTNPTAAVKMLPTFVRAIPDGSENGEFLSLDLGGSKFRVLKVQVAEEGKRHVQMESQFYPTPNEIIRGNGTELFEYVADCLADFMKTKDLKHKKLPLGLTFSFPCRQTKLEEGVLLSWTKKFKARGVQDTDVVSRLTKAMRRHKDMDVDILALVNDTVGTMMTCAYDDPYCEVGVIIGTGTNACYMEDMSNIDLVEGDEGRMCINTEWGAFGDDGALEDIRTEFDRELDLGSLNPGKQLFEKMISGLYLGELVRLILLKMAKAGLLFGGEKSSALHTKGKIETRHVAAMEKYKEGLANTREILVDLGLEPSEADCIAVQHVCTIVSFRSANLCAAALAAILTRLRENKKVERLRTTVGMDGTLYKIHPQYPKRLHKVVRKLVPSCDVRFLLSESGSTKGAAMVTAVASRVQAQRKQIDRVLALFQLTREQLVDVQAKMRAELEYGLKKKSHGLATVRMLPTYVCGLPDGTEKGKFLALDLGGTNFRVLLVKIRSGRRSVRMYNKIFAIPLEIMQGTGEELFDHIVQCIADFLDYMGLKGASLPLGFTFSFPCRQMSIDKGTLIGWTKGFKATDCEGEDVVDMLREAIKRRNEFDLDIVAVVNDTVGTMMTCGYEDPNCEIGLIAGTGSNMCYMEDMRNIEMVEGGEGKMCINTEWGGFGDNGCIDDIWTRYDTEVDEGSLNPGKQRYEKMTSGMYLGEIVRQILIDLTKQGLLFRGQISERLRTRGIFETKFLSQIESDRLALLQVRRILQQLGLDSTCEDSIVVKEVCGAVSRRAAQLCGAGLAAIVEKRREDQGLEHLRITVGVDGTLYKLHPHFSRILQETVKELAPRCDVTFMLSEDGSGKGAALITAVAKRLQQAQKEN
# Hexokinase-1 = molecular target: T3, Hexokinase-1 (Homo sapiens, UniProt P19367); test: hexokinase 1 activators, dose response, selectivity assay for HKDC1 activator project, biochemical (AID 504762); assay type: functional
# T3 sequence (P19367 whole entry): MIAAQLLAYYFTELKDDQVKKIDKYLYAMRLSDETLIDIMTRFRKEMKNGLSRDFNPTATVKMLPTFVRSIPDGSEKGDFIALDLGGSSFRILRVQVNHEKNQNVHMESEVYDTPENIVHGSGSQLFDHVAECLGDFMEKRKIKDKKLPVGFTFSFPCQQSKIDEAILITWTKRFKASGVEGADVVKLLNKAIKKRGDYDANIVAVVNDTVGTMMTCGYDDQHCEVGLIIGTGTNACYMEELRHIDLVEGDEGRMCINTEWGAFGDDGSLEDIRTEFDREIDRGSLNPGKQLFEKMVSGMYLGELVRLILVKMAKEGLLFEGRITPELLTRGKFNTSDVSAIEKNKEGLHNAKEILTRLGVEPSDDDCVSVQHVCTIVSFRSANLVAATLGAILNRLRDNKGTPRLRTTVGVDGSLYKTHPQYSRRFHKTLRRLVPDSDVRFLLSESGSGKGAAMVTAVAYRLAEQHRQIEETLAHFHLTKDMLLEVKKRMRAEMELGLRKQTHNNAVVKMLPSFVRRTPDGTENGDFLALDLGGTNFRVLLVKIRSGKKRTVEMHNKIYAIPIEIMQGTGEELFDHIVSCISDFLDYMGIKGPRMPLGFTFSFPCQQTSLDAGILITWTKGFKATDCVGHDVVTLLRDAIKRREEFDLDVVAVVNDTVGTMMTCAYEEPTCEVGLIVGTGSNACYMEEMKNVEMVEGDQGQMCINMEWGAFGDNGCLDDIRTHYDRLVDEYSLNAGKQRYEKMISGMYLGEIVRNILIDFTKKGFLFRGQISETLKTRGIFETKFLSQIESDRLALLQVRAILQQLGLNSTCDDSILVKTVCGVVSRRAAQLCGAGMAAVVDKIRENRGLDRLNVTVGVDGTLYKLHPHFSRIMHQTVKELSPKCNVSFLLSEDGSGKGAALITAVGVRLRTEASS
# [5] = molecular target: T4, Lysine-specific demethylase 4C (Homo sapiens, UniProt Q9H3R0); test: GASC-1 (JMJD2C) histone demethylase inhibitors, dose response, biochemical, DELFIA europium, cherry-picked samples (AID 488835); assay type: functional
# T4 sequence (Q9H3R0 whole entry): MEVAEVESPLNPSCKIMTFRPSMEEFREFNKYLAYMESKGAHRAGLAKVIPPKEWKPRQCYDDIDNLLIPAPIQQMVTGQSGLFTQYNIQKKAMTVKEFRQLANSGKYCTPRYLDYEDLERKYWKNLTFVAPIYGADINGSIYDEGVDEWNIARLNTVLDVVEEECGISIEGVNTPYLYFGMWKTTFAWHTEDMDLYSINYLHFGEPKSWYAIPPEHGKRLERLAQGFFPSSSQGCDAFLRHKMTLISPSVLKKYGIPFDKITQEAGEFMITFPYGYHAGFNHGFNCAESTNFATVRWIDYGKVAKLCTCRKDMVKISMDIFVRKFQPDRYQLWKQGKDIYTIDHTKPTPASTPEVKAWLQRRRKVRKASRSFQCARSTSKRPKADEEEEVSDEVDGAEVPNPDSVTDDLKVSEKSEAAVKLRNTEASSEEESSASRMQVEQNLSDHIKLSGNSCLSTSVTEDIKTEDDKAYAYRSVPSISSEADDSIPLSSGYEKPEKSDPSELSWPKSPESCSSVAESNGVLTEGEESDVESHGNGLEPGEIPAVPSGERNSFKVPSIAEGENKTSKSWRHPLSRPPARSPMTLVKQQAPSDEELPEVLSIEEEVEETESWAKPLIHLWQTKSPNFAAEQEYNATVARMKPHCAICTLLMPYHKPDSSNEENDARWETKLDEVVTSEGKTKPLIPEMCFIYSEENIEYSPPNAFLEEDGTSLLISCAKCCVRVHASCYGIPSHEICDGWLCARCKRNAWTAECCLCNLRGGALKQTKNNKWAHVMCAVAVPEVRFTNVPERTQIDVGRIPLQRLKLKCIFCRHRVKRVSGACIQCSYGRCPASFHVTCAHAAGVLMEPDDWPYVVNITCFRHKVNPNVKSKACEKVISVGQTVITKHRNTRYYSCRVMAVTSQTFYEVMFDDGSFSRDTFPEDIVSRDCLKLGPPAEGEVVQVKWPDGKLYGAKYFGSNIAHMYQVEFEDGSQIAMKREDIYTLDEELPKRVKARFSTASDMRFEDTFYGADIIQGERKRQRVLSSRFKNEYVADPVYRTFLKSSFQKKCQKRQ
# INS1 = test: beta cell apoptosis inhibitors, cytokine rescue, dose response, luminescence, retest (AID 449756); assay type: functional, cell-based; settings: Rattus norvegicus;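 also: cell death triggered by IL-1 beta plus TNF-alpha plus IFN-gamma mixture; protective hits raise ATP signal compared with cytokine alone wells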
# [6] = Shn3 3'UTR reporter inhibitors, dose response, cell-based, Clone20 osteoblasts, firefly luciferase, cherry-picked (AID 624132); assay type: functional;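 also: firefly luciferase luminescence from reporter carrying the Shn3 3'UTR in osteoblasts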
# [7] = HepG2 cell cytotoxicity, dose response, cytotoxicity control for Shn3 inhibitor project, CellTiter-Glo, cherry-picked (AID 624134); assay type: functional, cell-based
# [8] = control 3'UTR Renilla luciferase suppression, dose response, counter-screen for Shn3 inhibitor project, cell-based, Clone20-Shn3RL, cherry-picked (AID 624133); assay type: functional
# [9] = molecular target: T5, Runt-related transcription factor 1/Core-binding factor subunit beta (Homo sapiens, UniProt Q01196+Q13951); test: inhibitors of RUNX1 Runt–CBFb-SMMHC binding, primary screen, biochemical, FRET, Cerulean-Runt, Venus-CBFb-SMMHC, uHTS (AID 1434); assay type: protein assay;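 also: partner is the CBFb-SMMHC leukemia fusion protein rather than wild-type CBFb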
# [10] = molecular target: T5, Runt-related transcription factor 1/Core-binding factor subunit beta; test: inhibitors of RUNX1 Runt–CBFb-SMMHC binding, biochemical, TR-FRET (AID 1438); assay type: protein assay
# [11] = molecular target: T6, Apoptotic protease-activating factor 1 (Homo sapiens, UniProt O14727); assay type: functional
# T6 sequence (O14727 whole entry): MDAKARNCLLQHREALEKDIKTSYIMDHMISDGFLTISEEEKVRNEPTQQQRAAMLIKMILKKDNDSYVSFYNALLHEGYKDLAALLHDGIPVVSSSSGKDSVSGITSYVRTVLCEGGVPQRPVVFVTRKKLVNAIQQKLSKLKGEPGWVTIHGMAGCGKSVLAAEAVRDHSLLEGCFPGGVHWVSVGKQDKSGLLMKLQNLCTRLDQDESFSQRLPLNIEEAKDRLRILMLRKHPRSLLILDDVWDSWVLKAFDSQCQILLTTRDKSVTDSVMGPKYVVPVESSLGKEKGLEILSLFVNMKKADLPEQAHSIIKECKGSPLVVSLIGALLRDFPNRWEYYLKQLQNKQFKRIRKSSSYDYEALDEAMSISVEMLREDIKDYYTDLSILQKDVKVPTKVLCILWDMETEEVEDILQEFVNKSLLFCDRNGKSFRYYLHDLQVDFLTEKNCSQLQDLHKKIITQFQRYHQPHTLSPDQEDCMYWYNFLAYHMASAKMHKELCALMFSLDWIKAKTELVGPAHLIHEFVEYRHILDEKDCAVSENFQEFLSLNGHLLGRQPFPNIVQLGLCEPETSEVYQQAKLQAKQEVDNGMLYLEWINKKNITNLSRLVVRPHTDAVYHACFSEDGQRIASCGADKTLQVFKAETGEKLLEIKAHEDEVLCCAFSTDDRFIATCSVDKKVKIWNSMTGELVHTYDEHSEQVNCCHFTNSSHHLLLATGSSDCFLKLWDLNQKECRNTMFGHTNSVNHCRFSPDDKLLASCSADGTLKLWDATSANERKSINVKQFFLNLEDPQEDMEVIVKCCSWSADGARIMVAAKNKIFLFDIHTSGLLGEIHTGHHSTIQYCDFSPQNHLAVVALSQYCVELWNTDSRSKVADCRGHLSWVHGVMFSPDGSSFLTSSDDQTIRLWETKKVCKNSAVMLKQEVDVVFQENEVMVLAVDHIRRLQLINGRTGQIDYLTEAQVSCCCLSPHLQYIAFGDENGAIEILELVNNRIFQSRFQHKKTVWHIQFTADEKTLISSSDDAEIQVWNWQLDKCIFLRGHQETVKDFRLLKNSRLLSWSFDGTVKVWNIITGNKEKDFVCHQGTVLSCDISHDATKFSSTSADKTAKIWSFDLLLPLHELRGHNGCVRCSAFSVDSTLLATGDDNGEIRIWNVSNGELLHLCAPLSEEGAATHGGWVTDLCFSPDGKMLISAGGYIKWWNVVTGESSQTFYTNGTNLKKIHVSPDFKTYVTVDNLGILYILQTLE
# [12] = molecular target: T1, Short transient receptor potential channel 4; test: mouse TRPC4 channel inhibitors, dose response, cell-based, HEK293 TRPC4/mu-opioid, Fluo-4 calcium (AID 434942); assay type: functional;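 also: potency of inhibitors blocking the TRPC4 calcium response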
# T5 sequence (Q01196 whole entry, the tested form may be a part): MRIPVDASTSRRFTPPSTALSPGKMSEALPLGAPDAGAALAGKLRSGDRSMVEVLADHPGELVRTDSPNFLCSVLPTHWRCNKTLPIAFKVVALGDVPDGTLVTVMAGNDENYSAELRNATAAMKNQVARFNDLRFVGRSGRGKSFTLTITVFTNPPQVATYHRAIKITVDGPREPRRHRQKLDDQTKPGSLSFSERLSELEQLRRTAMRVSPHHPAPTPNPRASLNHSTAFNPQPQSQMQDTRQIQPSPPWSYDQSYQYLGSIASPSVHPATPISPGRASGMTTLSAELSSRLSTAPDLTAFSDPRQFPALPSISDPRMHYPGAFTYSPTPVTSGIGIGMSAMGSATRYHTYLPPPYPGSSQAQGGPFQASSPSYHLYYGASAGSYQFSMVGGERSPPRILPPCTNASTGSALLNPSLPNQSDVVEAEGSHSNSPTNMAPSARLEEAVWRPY
# T5 sequence (Q13951 whole entry, the tested form may be a part): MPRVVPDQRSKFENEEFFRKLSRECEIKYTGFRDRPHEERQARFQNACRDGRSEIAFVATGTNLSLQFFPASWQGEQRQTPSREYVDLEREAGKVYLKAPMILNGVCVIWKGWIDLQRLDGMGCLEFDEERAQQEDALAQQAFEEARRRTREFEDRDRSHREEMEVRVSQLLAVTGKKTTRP
# Chain of Voltage-dependent T-type calcium channel subunit alpha-1H (O95180 whole entry): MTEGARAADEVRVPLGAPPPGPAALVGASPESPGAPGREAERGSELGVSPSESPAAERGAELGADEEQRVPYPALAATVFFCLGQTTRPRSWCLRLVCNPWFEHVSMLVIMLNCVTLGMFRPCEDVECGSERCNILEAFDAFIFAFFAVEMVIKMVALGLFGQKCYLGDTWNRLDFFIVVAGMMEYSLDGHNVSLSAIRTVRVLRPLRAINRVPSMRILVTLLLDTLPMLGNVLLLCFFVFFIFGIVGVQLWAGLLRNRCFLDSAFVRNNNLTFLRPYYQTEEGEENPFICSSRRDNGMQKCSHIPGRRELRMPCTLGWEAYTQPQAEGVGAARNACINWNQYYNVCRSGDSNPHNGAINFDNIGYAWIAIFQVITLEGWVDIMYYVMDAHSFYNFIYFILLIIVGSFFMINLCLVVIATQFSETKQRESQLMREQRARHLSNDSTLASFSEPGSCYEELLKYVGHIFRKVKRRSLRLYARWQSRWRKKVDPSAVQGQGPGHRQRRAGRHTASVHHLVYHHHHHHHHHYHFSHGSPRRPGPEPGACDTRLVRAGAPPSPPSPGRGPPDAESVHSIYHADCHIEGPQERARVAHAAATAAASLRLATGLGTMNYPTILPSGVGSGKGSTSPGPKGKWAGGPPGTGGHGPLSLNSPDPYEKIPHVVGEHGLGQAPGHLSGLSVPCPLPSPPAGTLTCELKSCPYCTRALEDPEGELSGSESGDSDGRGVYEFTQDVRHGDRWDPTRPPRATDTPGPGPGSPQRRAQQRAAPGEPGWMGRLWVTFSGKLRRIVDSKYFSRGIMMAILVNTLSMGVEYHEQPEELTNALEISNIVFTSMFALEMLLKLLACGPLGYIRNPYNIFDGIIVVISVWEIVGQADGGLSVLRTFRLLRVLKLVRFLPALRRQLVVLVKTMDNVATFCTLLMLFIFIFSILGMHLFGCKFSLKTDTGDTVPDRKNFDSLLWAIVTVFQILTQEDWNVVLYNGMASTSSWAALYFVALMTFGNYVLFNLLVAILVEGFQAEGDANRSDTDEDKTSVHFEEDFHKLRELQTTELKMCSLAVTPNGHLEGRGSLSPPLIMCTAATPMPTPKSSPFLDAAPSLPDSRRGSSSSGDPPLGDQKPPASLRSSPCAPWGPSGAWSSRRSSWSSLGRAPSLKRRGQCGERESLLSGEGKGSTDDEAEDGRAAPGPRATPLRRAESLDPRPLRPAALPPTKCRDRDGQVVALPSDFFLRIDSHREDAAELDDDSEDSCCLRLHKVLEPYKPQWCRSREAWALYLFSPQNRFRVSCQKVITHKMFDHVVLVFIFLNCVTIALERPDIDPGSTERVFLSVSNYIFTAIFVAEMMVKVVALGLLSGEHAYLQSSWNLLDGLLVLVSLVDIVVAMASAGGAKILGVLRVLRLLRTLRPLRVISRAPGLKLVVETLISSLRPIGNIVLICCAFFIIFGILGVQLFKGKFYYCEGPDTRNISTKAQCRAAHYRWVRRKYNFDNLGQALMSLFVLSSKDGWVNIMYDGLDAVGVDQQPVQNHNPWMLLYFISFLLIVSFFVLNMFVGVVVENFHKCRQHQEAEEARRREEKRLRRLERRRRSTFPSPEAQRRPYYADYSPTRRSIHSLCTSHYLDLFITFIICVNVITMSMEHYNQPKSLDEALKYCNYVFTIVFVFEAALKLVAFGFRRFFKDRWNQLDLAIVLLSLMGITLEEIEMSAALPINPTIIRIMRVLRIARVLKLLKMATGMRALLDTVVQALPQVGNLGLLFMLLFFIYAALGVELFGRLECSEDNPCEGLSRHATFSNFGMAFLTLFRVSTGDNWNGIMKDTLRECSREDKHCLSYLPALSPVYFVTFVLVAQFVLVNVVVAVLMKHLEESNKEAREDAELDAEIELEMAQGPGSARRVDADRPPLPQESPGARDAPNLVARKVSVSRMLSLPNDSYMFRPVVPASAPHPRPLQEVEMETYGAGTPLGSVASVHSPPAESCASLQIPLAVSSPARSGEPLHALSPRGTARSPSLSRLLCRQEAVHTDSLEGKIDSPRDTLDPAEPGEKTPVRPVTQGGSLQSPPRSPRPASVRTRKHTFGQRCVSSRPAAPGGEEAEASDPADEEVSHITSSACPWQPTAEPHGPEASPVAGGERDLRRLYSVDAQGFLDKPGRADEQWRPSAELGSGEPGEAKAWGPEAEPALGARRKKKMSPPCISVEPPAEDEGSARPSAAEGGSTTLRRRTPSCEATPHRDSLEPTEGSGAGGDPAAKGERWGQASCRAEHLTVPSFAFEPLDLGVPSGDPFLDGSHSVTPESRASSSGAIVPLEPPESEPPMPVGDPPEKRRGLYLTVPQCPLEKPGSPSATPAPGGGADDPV
structure (smiles),measurement,setting,value
O=C(CN1CCN(c2ncc(C(F)(F)F)cc2Cl)CC1)N1CCN(c2ncc(C(F)(F)F)cc2Cl)CC1,EC50,[1],48.4 µM (active)
same,EC50,[2],49.1 µM (active)
same,EC50,[3],8.68 µM (active)
same,EC50,[4],3.35 µM (active)
CC(C)(C)c1ccc(-c2csc(NNC3=NCCCCC3)n2)cc1,EC50,Hexokinase HKDC1,38.1 µM (inactive)
same,EC50,Hexokinase-1,47.4 µM (inactive)
same,AC50,[5],22.3 µM (active)
C=CCn1nc([N+](=O)[O-])nc1Sc1cccc2cccnc12,EC50,Hexokinase HKDC1,> 80 µM (inactive)
same,EC50,Hexokinase-1,> 80 µM (inactive)
same,AC50,INS1,1.24 µM (active)
same,AC50,[6],10.7 µM (active)
same,AC50,[7],30.3 µM (active)
same,AC50,[8],7.05 µM (active)
COCCCNC(=O)c1c(NC(=O)c2ccco2)n(Cc2ccccc2)c2nc3ccccc3nc12,IC50,[9],340 nM (active)
same,IC50,[10],16 µM (active)
same,IC50,[11],> 100 µM (inactive)
Clc1ccc(COn2c(-c3ccc(Cl)cc3Cl)nc3ncccc32)cc1,EC50,[12],1.33 µM (active)
same,EC50,[4],4.22 µM (active)
